{"source": "patent US20160067211A1", "about": "“PHARMACEUTICAL COMPOSITION” (Eberhard Karls Universitaet Tuebingen Medizinische Fakultaet, priority 2013, published 2016)", "key": {"[1]": {"tested_on": "breast cancer cells MCF-7", "settings": "cited from earlier work"}, "[2]": {"tested_on": "histon protein H3 acetylation in SK-MEL-28 melanoma cells", "experiment": "Western blot of acetylated histon H3, SK-MEL-28", "format": "cell-based, human", "settings": "SK-MEL-28, 100 μM, two hours, vs. DMSO control", "protocol": "FIG. 4: 6-PN and 8-PN induce a hyper acetylation in SK-MEL-28 melanoma cells. Western blot analysis of acetylated histon complex H3 in cellular lysates of BLM and SK-MEL-28 cells treated with 100 μM 6-PN or 8-PN for 1, 2, 4, 12 and 24 h, or with 100 μM SAHA (as reference HDACi) for 24 h. Equal protein loading was verified by vinculin staining (lower rows). At 24 hours (BLM) and 2 hours (SK-MEL-28) after the PN treatment a prominent up-regulation of ac-H3 is detectable. The protein expression levels were estimated performing a densitometric analysis.\n(§1) The following antibodies were used: Anti-Vinculin and Anti-Actin (1:5000, Sigma-Aldrich), Anti-Acetyl-Histon H3 (1:5000, Millipore, Billerica, USA), Anti-Caspase-3 (1:1000), Anti-AKT, Anti-pAKT, Anti-ERK, Anti-pERK, […], Anti-p70S6 Kinase, and Anti-pS6 protein (1:1000), all from Cell Signaling, Frankfurt, Germany), Anti-LC3 (1:5000, Sigma-Aldrich).\nAn incubation of cells with HDACi induces generally a hyperacetylation of histon proteins. Therefore, the acetylation status of the histon protein H3 after treatment with 6-PN or 8-PN was investigated. Corresponding to the HDAC screening results, a direct effect was monitored. […] SAHA was used as control HDACi (at 100 μM, 24 hours treatment)."}, "[3]": {"tested_on": "all tested cancer cells (Tab. 1)", "experiment": "Proliferation of all tested tumor cell lines (Table 1)", "format": "cell-based", "settings": "19 tumor cell lines of Tab. 1", "excerpt": "The inventors have tested 19 different tumor cell lines in total, including five melanoma cell lines, two liver cancer cell lines, three breast cancer cell lines, three colon cancer cell lines, two prostate cancer cell lines, two lung cancer cell lines and to renal cancer cell lines."}, "[4]": {"tested_on": "pS6P, P70S6 kinase, pERK, caspase-3, Bcl-xl in SK-MEL-28 melanoma cells", "experiment": "Western blot of signalling proteins", "format": "cell-based, human", "settings": "SK-MEL-28, 100 μM", "protocol": "FIG. 8: 6-PN and 8-PN decrease expression of pS6p via down regulation of pERK/pP90. Western blot analysis of SK-MEL-28 melanoma cells 1 hour, 2 hours, 4 hours, 12 hours, and 24 hours after treatment with 100 μM 6-PN or 8-PN. 6-PN and 8-PN induced down regulation of pS6p accompanied by a decrease of pERK and pP90, respectively. 6-PN and 8-PN induced time dependent increase of p70s6-kinase.\nas §1\nTo further analyze the type of cell death induced by 6-PN and 8-PN, western blot analyses of SK-MEL-28 melanoma cells were performed 1, 2, 4, 12 and 24 hours after the treatment with 100 μM 6-PN and 8-PN. […] Upon PN treatment an inconsistent expression of oncogenic AKT and phospho-AKT (pAKT) was detected. […] Thus, there was an obvious discrepancy between the expression of pAKT and pS6P. Therefore it was first also looked for the expression of P70S6 kinase and its phosphorylated form. […] Therefore it was next asked whether the S6P could be phosphorylated by a different mechanism. In this respect, activated ERK can phosphorylate the p90 ribosomal S6 kinase (pP90). pP90 also phosphorylates the S6P (in addition to the P70S6 kinase). Since the pP70S6 kinase was absent in the used cells (SK-MEL-28 and BLM), it was hypothesized that the phosphorylation of the S6P was conducted via the pERK/pP90 pathway, independent from the P70S6 signalling. This hypothesis was supported by the parallel down-regulation of the bands for pP90 (Thr359/Ser363) and pS6P 12 hours after the treatment with 6-PN, and the reappearance of both bands after 24 hours (FIG. 8). […] The western blot experiments were repeated with BLM cells under the same treatment conditions and yielded similar results (not shown)."}, "[5]": {"tested_on": "prostate cancer cell line PC-3", "settings": "PC-3 in vitro; cited from earlier work"}, "BLM melanoma cells": {"tested_on": "BLM melanoma cells", "experiment": "Organotypic human epidermal skin reconstructs, BLM", "format": "cell-based", "settings": "100 μM, 40× magnification", "protocol": "FIG. 11: 6-PN and 8-PN reduce proliferation and invasion of BLM and LOXIMVI melanoma cells in human epidermal skin reconstructs and induce little embryo toxicity. (A) BLM melanoma cells and keratinocytes were seeded on top of a collagen matrix populated by fibroblasts. After 16 days a keratinizing stratified epithelium with a rudimentary corium is formed. […] (B) Similar results were obtained for LOXIMVI melanoma cells under the same treatment conditions. Only nests of dead, MIB1 negative LOXIMVI cells were detected after treatment with the PNs. […]\nIn this assay, keratinocytes and melanoma cells are seeded on top of a collagen matrix populated by fibroblasts. […] Untreated control BLM cells (depicting 70-80% proliferation, determined by MIB1 immunhistochemistry) had formed a large tumor in the epidermal part of the reconstruct and had invaded the corium (FIG. 11A, upper panel). To determine the amount of proliferating cells, the number of MIB1 positive melanoma cells per power field in the epidermal part of the reconstruct at the epidermal-dermal border was counted (40× magnification, n=5 adjacent fields examined). Further, the number of melanoma cells invading the dermal part of the reconstruct was counted in the same high power fields. In reconstructs with untreated BLM cells, 103±15 MIB1 positive cells and 39±13 invasive cells were counted (FIG. 11A, upper panel). […]"}}}
{"compound": "CC(C)=CCc1c(O)cc(O)c2c1OC(c1ccc(O)cc1)CC2=O", "note": "(stereo not shown) [8-PN, 5,7-Dihydroxy-2-(4-hydroxy-phenyl)-8-(3-methyl-but-2-enyl)-chroman-4-one]", "values": [{"measurement": "effects on breast cancer cells compared with 17β-Estradiol", "setting": "[1]", "value": "imitates the effects of 17β-Estradiol"}, {"measurement": "histon complex H3 acetylation", "setting": "[2]", "value": "massive increase"}, {"measurement": "cell proliferation in all tested cancer cells", "setting": "[3]", "value": "effectively reduce cell proliferation"}, {"measurement": "protein levels of caspase-3 and Bcl-xl", "setting": "[4]; 1-24 hours", "value": "decreased protein levels"}, {"measurement": "phospho-S6 protein (pS6P) expression", "setting": "[4]; after 4 hours, 12 hours, and 24 hours", "value": "strongly down regulated"}, {"measurement": "pERK expression", "setting": "[4]; after 12 hours and 24 hours", "value": "strong down regulation"}, {"measurement": "P70S6 kinase bands", "setting": "[4]; time-dependent (1-24 hours)", "value": "down-regulated"}, {"measurement": "antiproliferative effects", "setting": "[5]", "value": "antiproliferative effects"}, {"measurement": "invasive cells per high power field", "setting": "BLM melanoma cells; untreated 39±13", "value": "6±2"}, {"measurement": "MIB1 positive cells per high power field", "setting": "BLM melanoma cells; untreated 103±15", "value": "16±4"}]}
